Assay results taken from publication PMC11600167 (JACS Au, 2024).

Columns and labels:
Assay in all cases: glycan microarray on Cu2O@Ag slides
Format in all cases: binding
[1] = biological target: T1, hGal-3 (human galectin-3) (Homo sapiens, UniProt P17931); settings: immobilised glycan via azide linker; hGal-3 25 μg/mL
T1 construct: gene LGALS3; chimera-type galectin; construct details only in supplement

[2] = biological target: T2, hGal-7 (human galectin-7) (Homo sapiens, UniProt P47929); settings: immobilised glycan via azide linker; hGal-7 25 μg/mL
T2 construct: gene LGALS7; construct details only in supplement

[3] = biological target: T3, hGal-1 (human galectin-1) (Homo sapiens, UniProt P09382); settings: immobilised glycan via azide linker; hGal-1 25 μg/mL
T3 construct: gene LGALS1; dimeric lectin; construct details only in supplement
T3 sequence (P09382 2-135): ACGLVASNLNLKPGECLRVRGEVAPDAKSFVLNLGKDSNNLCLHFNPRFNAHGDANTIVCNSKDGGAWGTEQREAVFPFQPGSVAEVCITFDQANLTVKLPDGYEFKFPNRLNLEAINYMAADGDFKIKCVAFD

T2 sequence (P47929 whole entry): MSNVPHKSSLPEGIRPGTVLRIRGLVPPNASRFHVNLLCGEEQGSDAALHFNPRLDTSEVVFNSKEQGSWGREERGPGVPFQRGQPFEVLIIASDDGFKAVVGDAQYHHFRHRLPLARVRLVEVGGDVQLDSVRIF
T1 sequence (P17931 2-250): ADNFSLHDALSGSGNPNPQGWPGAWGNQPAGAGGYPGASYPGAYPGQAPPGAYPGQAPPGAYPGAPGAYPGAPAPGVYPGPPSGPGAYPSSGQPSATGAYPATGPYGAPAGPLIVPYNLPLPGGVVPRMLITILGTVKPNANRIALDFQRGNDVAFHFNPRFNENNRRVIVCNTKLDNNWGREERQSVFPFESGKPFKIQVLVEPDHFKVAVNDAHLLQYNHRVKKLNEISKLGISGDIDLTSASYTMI

SMILES: CC(=O)N[C@H]1[C@H](O[C@H]2[C@@H](O)[C@@H](CO)O[C@@H](O[C@H]3[C@H](O)[C@@H](O)C(O)O[C@@H]3CO)[C@@H]2O)O[C@H](CO)[C@@H](O[C@@H]2O[C@H](CO)[C@H](O)[C@H](O)[C@H]2O)[C@@H]1O (stereo partly drawn) [LNnT]
- glycan microarray on Cu2O@Ag slides [1]: The stronger affinity of LNnT compared to LNT

SMILES: CC(=O)N[C@H]1[C@H](O[C@H]2[C@@H](O)[C@@H](CO)O[C@@H](O[C@H]3[C@H](O)[C@@H](O)C(O)O[C@@H]3CO)[C@@H]2O)O[C@H](CO)[C@@H](O)[C@@H]1O[C@@H]1O[C@H](CO)[C@H](O)[C@H](O)[C@H]1O (stereo partly drawn) [LNT]
- glycan microarray on Cu2O@Ag slides [2]: with LNT showing the strongest binding affinity
- glycan microarray on Cu2O@Ag slides [3]: LNT and LNnT, respectively) further increased the binding affinity
